Source: article PMC11359040, “Long-Circulating and Brain-Targeted Liposomes Loaded with Isoliquiritigenin: Formation, Characterization, Pharmacokinetics, and Distribution” (Pharmaceutics, 2024)

Test: Concentration of free isoliquiritigenin in saturated aqueous phase by HPLC
Format: physicochemical
Protocol: A total of 100 μL of ISL-LP solution was added to 900 μL of methanol and then subjected to vortex shaking for 10 min to disrupt the liposome structure. Following centrifugation at a speed of 13,000 rpm and a temperature of 4 °C for 10 min, 100 μL of the supernatant was diluted with methanol and then filtered through 0.22 μm membranes. Subsequently, 15 μL of the solution was injected into a high-performance liquid chromatography system (HPLC, Agilent 1100, Santa Clara, CA, USA) to detect the concentration of ISL according to the method previously reported. Before these steps, we quantified the concentration of free isoliquiritigenin in the saturated aqueous phase by HPLC. […] The drug loading (DL) and EE of ISL-LP were calculated according to Equations (1) and (2):EE (%) = (Wloaded/Wadded) × 100%(1) DL (%) = (Wloaded/Wtotal) × 100%(2) where Wloaded represents the amount of ISL loaded, Wadded denotes the weight of ISL added, and Wtotal signifies the weight of liposomes.

concentration of free isoliquiritigenin in the saturated aqueous phase: below the detection limit
SMILES: O=C(/C=C/c1ccc(O)cc1)c1ccc(O)cc1O [isoliquiritigenin, Isoliquiritigenin]
